Results reported in patent US20230085307A1, “PYRIDAZINONE COMPOUND AND HERBICIDE” (NISSAN CHEMICAL CORPORATION, priority 2019, published 2023).

Tests used:
Italian ryegrass [1] = test: Test Example 4: herbicidal effect by soil treatment (Table 19, symbol K); assay type: in vivo, Italian ryegrass (Lolium multiflorum); conditions: amount of applied herbicide 320 g/ha
Method in brief: (§1)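 Step 1: sow seeds in sterilized diluvial soil, cover ~1.5 cm. Step 2: spray diluted emulsion onto soil surface at predetermined rate. Step 3: greenhouse, 25–30° C, three weeks. Step 4: grade effect on each plant by earlier criteria.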

green foxtail [2] = test: Test Example 4: herbicidal effect by soil treatment (Table 19, symbol G); assay type: in vivo, green foxtail (Setaria viridis); conditions: amount of applied herbicide 320 g/ha
Method in brief: as §1

blackgrass [3] = test: Test Example 5: herbicidal effect by foliage application, plastic box (Table 20, symbol J); assay type: in vivo, blackgrass (Alopecurus myosuroides); conditions: foliage application, 320 g/ha, three weeks after application
Method in brief: (§2)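 Foliar spray test: emulsion formulation diluted in water to a set application rate, sprayed onto 14-day-old plants raised in diluvial soil at 25° C to 30° C under glass. Both herbicidal effect and crop effect rated visually three weeks later.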

rice flat sedge = test: Test Example 3: herbicidal effect by foliage application, Wagner pot (Table 18, symbol E); assay type: in vivo, rice flat sedge (Cyperus iria); conditions: 320 g/ha
Method in brief: (§3)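 Plants were sown in alluvial soil held under 0.1–0.5 cm standing water and grown 14 days in a greenhouse at 25–30 °C. An emulsifiable formulation, water-diluted to the set dose, was then sprayed onto the foliage, and effects were scored three weeks later using previously defined criteria.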

windgrass [4] = test: Test Example 4: herbicidal effect by soil treatment (Table 19, symbol L); assay type: in vivo, windgrass (Apera spica-venti); conditions: amount of applied herbicide 320 g/ha
Method in brief: as §1

lambsquarters [5] = test: Test Example 5: herbicidal effect by foliage application, plastic box (Table 20, symbol O); assay type: in vivo, lambsquarters (Chenopodium album); conditions: foliage application, 320 g/ha, three weeks after application
Method in brief: as §2

lambsquarters [6] = test: Test Example 4: herbicidal effect by soil treatment (Table 19, symbol O); assay type: in vivo, lambsquarters (Chenopodium album); conditions: amount of applied herbicide 320 g/ha
Method in brief: as §1

Italian ryegrass [7] = test: Test Example 5: herbicidal effect by foliage application, plastic box (Table 20, symbol K); assay type: in vivo, Italian ryegrass (Lolium multiflorum); conditions: foliage application, 320 g/ha, three weeks after application
Method in brief: as §2

green foxtail [8] = test: Test Example 5: herbicidal effect by foliage application, plastic box (Table 20, symbol G); assay type: in vivo, green foxtail (Setaria viridis); conditions: foliage application, 320 g/ha, three weeks after application
Method in brief: as §2

persian speedwell [9] = test: Test Example 4: herbicidal effect by soil treatment (Table 19, symbol R); assay type: in vivo, Persian speedwell (Veronica persica); conditions: amount of applied herbicide 320 g/ha
Method in brief: as §1

blackgrass [10] = test: Test Example 4: herbicidal effect by soil treatment (Table 19, symbol J); assay type: in vivo, blackgrass (Alopecurus myosuroides); conditions: amount of applied herbicide 320 g/ha
Method in brief: as §1

barnyard grass [11] = test: Test Example 4: herbicidal effect by soil treatment (Table 19, symbol H); assay type: in vivo, barnyard grass (Echinochloa crus-galli); conditions: amount of applied herbicide 320 g/ha
Method in brief: as §1

southern crabgrass [12] = test: Test Example 5: herbicidal effect by foliage application, plastic box (Table 20, symbol F); assay type: in vivo, southern crabgrass (Digitaria ciliaris); conditions: foliage application, 320 g/ha, three weeks after application
Method in brief: as §2

chickweed [13] = test: Test Example 5: herbicidal effect by foliage application, plastic box (Table 20, symbol P); assay type: in vivo, common chickweed (Stellaria media); conditions: foliage application, 320 g/ha, three weeks after application
Method in brief: as §2

Chinese sprangletop = test: Test Example 3: herbicidal effect by foliage application, Wagner pot (Table 18, symbol D); assay type: in vivo, chinese sprangletop (Leptochloa chinensis); conditions: 320 g/ha
Method in brief: as §3

wild oat [14] = test: Test Example 4: herbicidal effect by soil treatment (Table 19, symbol I); assay type: in vivo, wild oat (Avena fatua); conditions: amount of applied herbicide 320 g/ha
Method in brief: as §1

chickweed [15] = test: Test Example 4: herbicidal effect by soil treatment (Table 19, symbol P); assay type: in vivo, common chickweed (Stellaria media); conditions: amount of applied herbicide 320 g/ha
Method in brief: as §1

redroot pigweed [16] = test: Test Example 5: herbicidal effect by foliage application, plastic box (Table 20, symbol N); assay type: in vivo, redroot pigweed (Amaranthus retroflexus); conditions: foliage application, 320 g/ha, three weeks after application
Method in brief: as §2

windgrass [17] = test: Test Example 5: herbicidal effect by foliage application, plastic box (Table 20, symbol L); assay type: in vivo, windgrass (Apera spica-venti); conditions: foliage application, 320 g/ha, three weeks after application
Method in brief: as §2

southern crabgrass [18] = test: Test Example 4: herbicidal effect by soil treatment (Table 19, symbol F); assay type: in vivo, southern crabgrass (Digitaria ciliaris); conditions: amount of applied herbicide 320 g/ha
Method in brief: as §1

barnyard grass [19] = test: Test Example 3: herbicidal effect by foliage application, Wagner pot (Table 18, symbol H); assay type: in vivo, barnyard grass (Echinochloa crus-galli); conditions: 320 g/ha
Method in brief: as §3

barnyard grass [20] = test: Test Example 5: herbicidal effect by foliage application, plastic box (Table 20, symbol H); assay type: in vivo, barnyard grass (Echinochloa crus-galli); conditions: foliage application, 320 g/ha, three weeks after application
Method in brief: as §2

persian speedwell [21] = test: Test Example 5: herbicidal effect by foliage application, plastic box (Table 20, symbol R); assay type: in vivo, Persian speedwell (Veronica persica); conditions: foliage application, 320 g/ha, three weeks after application
Method in brief: as §2

wild oat [22] = test: Test Example 5: herbicidal effect by foliage application, plastic box (Table 20, symbol I); assay type: in vivo, wild oat (Avena fatua); conditions: foliage application, 320 g/ha, three weeks after application
Method in brief: as §2

redroot pigweed [23] = test: Test Example 4: herbicidal effect by soil treatment (Table 19, symbol N); assay type: in vivo, redroot pigweed (Amaranthus retroflexus); conditions: amount of applied herbicide 320 g/ha
Method in brief: as §1

velvetleaf [24] = test: Test Example 4: herbicidal effect by soil treatment (Table 19, symbol M); assay type: in vivo, velvetleaf (Abutilon theophrasti); conditions: amount of applied herbicide 320 g/ha
Method in brief: as §1

velvetleaf [25] = test: Test Example 5: herbicidal effect by foliage application, plastic box (Table 20, symbol M); assay type: in vivo, velvetleaf (Abutilon theophrasti); conditions: foliage application, 320 g/ha, three weeks after application
Method in brief: as §2

COc1ccc(F)cc1-c1sc2ccccc2c1-c1c(O)c(C)nn(C)c1=O [1-058]
herbicidal effect rating, K: Italian ryegrass (Italian ryegrass [1]): 0 (Herbicidal rate of 5% or less (almost no effect)) | herbicidal effect rating, G: green foxtail (green foxtail [2]): 5 (Herbicidal rate of 90% or more (almost completely withered)) | herbicidal effect grade, J: blackgrass (blackgrass [3]): 4 (Herbicidal rate of 70% or more and less than 90%) | herbicidal effect on E (rice flat sedge), rating 0-5 (rice flat sedge): 5 (Herbicidal rate of 90% or more (almost completely withered)) | herbicidal effect rating, L: windgrass (windgrass [4]): 0 (Herbicidal rate of 5% or less (almost no effect)) | herbicidal effect grade, O: lambsquarters (lambsquarters [5]): 0 (Herbicidal rate of 5% or less (almost no effect)) | herbicidal effect rating, O: lambsquarters (lambsquarters [6]): 3 (Herbicidal rate of 40% or more and less than 70%) | herbicidal effect grade, K: Italian ryegrass (Italian ryegrass [7]): 4 (Herbicidal rate of 70% or more and less than 90%) | herbicidal effect grade, G: green foxtail (green foxtail [8]): 4 (Herbicidal rate of 70% or more and less than 90%) | herbicidal effect rating, R: persian speedwell (persian speedwell [9]): 4 (Herbicidal rate of 70% or more and less than 90%) | herbicidal effect rating, J: blackgrass (blackgrass [10]): 2 (Herbicidal rate of 20% or more and less than 40%) | herbicidal effect rating, H: barnyard grass (barnyard grass [11]): 3 (Herbicidal rate of 40% or more and less than 70%) | herbicidal effect grade, F: southern crabgrass (southern crabgrass [12]): 3 (Herbicidal rate of 40% or more and less than 70%) | herbicidal effect grade, P: chickweed (chickweed [13]): 5 (Herbicidal rate of 90% or more (almost completely withered)) | herbicidal effect on D (Chinese sprangletop), rating 0-5 (Chinese sprangletop): 3 (Herbicidal rate of 40% or more and less than 70%) | herbicidal effect rating, I: wild oat (wild oat [14]): 1 (Herbicidal rate of 5% or more and less than 20%) | herbicidal effect rating, P: chickweed (chickweed [15]): 5 (Herbicidal rate of 90% or more (almost completely withered)) | herbicidal effect grade, N: redroot pigweed (redroot pigweed [16]): 2 (Herbicidal rate of 20% or more and less than 40%) | herbicidal effect grade, L: windgrass (windgrass [17]): 4 (Herbicidal rate of 70% or more and less than 90%) | herbicidal effect rating, F: southern crabgrass (southern crabgrass [18]): 2 (Herbicidal rate of 20% or more and less than 40%) | herbicidal effect on H (barnyard grass), rating 0-5 (barnyard grass [19]): 4 (Herbicidal rate of 70% or more and less than 90%) | herbicidal effect grade, H: barnyard grass (barnyard grass [20]): 3 (Herbicidal rate of 40% or more and less than 70%) | herbicidal effect grade, R: persian speedwell (persian speedwell [21]): 4 (Herbicidal rate of 70% or more and less than 90%) | herbicidal effect grade, I: wild oat (wild oat [22]): 1 (Herbicidal rate of 5% or more and less than 20%) | herbicidal effect rating, N: redroot pigweed (redroot pigweed [23]): 2 (Herbicidal rate of 20% or more and less than 40%) | herbicidal effect rating, M: velvetleaf (velvetleaf [24]): 0 (Herbicidal rate of 5% or less (almost no effect)) | herbicidal effect grade, M: velvetleaf (velvetleaf [25]): 1 (Herbicidal rate of 5% or more and less than 20%)
